± gives the standard deviation of the averaged measurements.
What was measured:
Experiment in all cases: CTG-3D luminescence at 96 h relative to day-0 seeding control (ratio to day 0); higher = more growth / less cytotoxicity; PDxO 3D drug screen, 96 h, CTG-3D normalised to day-0 seeding control.
HCI-017.E2 = test system: HCI-017.E2 (organoid from an ER-positive breast cancer xenograft)
HCI-002 = test system: HCI-002 (organoid from a triple-negative breast cancer xenograft)
HCI-015 = test system: HCI-015 (organoid from a triple-negative breast cancer xenograft)
MDA-MB-231 = test system: MDA-MB-231
HCI-023 = test system: HCI-023 (organoid from a triple-negative breast cancer xenograft)
HCI-025 = test system: HCI-025 (organoid from a breast cancer xenograft)

Nc1ccn([C@@H]2O[C@H](CO)[C@@H](O)C2(F)F)c(=O)n1 [gemcitabine]
CTG-3D luminescence at 96 h
Details | 12.5 pM | 0.00025 µM | 0.005 µM | 0.1 µM | 1 µM | 10 µM | 100 µM | 625 fM
HCI-017.E2 | 2.08 ± 0.065 | 2.07 ± 0.064 | 1.97 ± 0.2 | 1.88 ± 0.23 | 1.74 ± 0.063 | 1.54 ± 0.14 | 1.67 ± 0.11 | 2.23 ± 0.15
MDA-MB-231 | 4.42 ± 1.4 | 4.37 ± 1.4 | 4.14 ± 1.3 | 2.62 ± 0.85 | 2 ± 0.8 | 1.11 ± 0.44 | 0.848 ± 0.44 | 4.44 ± 1.3

CTG-3D luminescence at 96 h
Details | 12.5 pM | 0.00025 µM | 0.005 µM | 0.1 µM | 1 µM | 10 µM | 100 µM | 625 fM
HCI-002, days in culture: 62 | 2.82 | 2.59 | 2.68 | 0.347 | 0.301 | 0.302 | 0.333 | 2.87
HCI-002, days in culture: 82 | 3.16 | 3.03 | 2.46 | 0.461 | 0.431 | 0.271 | 0.234 | 3.23
HCI-002, days in culture: 91 | 4.24 | 3.02 | 3.08 | 0.544 | 0.381 | 0.346 | 0.287 | 3.87
HCI-002, days in culture: 191 | 2.63 | 2.79 | 2.69 | 0.517 | 0.487 | 0.295 | 0.366 | 2.52
HCI-002, days in culture: 209 | 2.52 | 2.33 | 2.08 | 0.339 | 0.32 | 0.178 | 0.242 | 2.33
HCI-002, days in culture: 227 | 5.51 | 5.33 | 4.57 | 1.05 | 0.78 | 0.657 | 0.547 | 4.99
HCI-015, days in culture: 172 | 2.22 | 1.3 | 1.95 | 0.109 | 0.123 | 0.136 | 0.152 | 2.75
HCI-015, days in culture: 191 | 2.28 | 1.52 | 0.975 | 0.116 | 0.114 | 0.105 | 0.109 | 1.5
HCI-015, days in culture: 218 | 1.86 | 1.48 | 0.887 | 0.138 | 0.105 | 0.107 | 0.0645 | 1.8
HCI-017.E2, days in culture: 85 | 2.64 | 2.91 | 2.88 | 1.88 | 1.87 | 1.29 | 1.7 | 2.11
HCI-023, days in culture: 111 | 1.4 | 1.31 | 1.05 | 0.265 | 0.33 | 0.28 | 0.0585 | 1.43
HCI-023, days in culture: 128 | 1.62 ± 0.34 | 1.78 ± 0.5 | 1.15 ± 0.13 | 0.416 ± 0.069 | 0.26 ± 0.029 | 0.399 ± 0.094 | 0.0826 ± 0.03 | 1.9 ± 0.23
HCI-025, days in culture: 172 | 3.01 | 1.72 | 2.29 | 0.436 | 0.742 | 0.364 | 0.195 | 2.47
HCI-025, days in culture: 209 | 2.06 | 2.11 | 1.83 | 0.884 | 0.873 | 0.449 | 0.155 | 1.79
HCI-025, days in culture: 218 | 1.86 | 2.09 | 1.77 | 0.5 | 0.362 | 0.365 | 0.143 | 1.79

CC1(C)CCC(c2ccc(Cl)cc2)=C(CN2CCN(c3ccc(C(=O)NS(=O)(=O)c4ccc(N[C@H](CCN5CCOCC5)CSc5ccccc5)c(S(=O)(=O)C(F)(F)F)c4)cc3)CC2)C1 [navitoclax]
CTG-3D luminescence at 96 h
Details | 12.5 pM | 0.00025 µM | 0.005 µM | 0.1 µM | 1 µM | 10 µM | 100 µM | 625 fM
HCI-017.E2 | 1.6 ± 0.18 | 2 ± 0.041 | 1.8 ± 0.34 | 1.81 ± 0.098 | 1.78 ± 0.1 | 1.7 ± 0.076 | 0.043 ± 0.019 | 1.812 ± 0.011
MDA-MB-231 | 4.52 ± 1.3 | 4.44 ± 1.4 | 4.56 ± 1.4 | 4.28 ± 1.3 | 3.8 ± 1 | 1.42 ± 0.98 | 0.000199 ± 0.013 | 4.6 ± 1.3

CTG-3D luminescence at 96 h
Details | 12.5 pM | 0.00025 µM | 0.005 µM | 0.1 µM | 1 µM | 10 µM | 100 µM | 625 fM
HCI-002, days in culture: 62 | 3.12 | 2.9 | 3.78 | 2.92 | 2.42 | 1.07 | 0.00133 | 3.47
HCI-002, days in culture: 82 | 3.88 | 4.28 | 2.86 | 2.91 | 2.86 | 1.36 | 0.00885 | 3.44
HCI-002, days in culture: 91 | 3.48 | 2.91 | 2.21 | 2.3 | 1.97 | 1.73 | 0.00844 | 3.14
HCI-002, days in culture: 191 | 3.36 | 3.04 | 3.27 | 3.13 | 2.63 | 1.29 | -0.105 | 3.4
HCI-002, days in culture: 209 | 2.83 | 3.07 | 2.6 | 2.13 | 1.85 | 1.18 | -0.00717 | 2.97
HCI-002, days in culture: 227 | 5.11 | 5.2 | 4.65 | 4.75 | 3.73 | 3.27 | 0.0214 | 5.74
HCI-015, days in culture: 172 | 2.17 | 2.01 | 2.2 | 1.82 | 1.99 | 1.61 | 0.429 | 2.6
HCI-015, days in culture: 191 | 2.56 | 1.7 | 2 | 1.59 | 1.87 | 1.01 | 0.399 | 1.61
HCI-015, days in culture: 218 | 1.72 | 1.53 | 1.74 | 1.59 | 1.64 | 1.63 | -0.117 | 1.97
HCI-017.E2, days in culture: 85 | 2.05 | 1.26 | 2.18 | 1.93 | 1.57 | 1.98 | 0.14 | 1.51
HCI-023, days in culture: 111 | 1.82 | 1.42 | 1.19 | 1.26 | 0.739 | 0.432 | 0.0151 | 1.83
HCI-023, days in culture: 128 | 1.58 ± 0.11 | 1.8 ± 0.42 | 1.53 ± 0.12 | 1.82 ± 0.083 | 1.1 ± 0.26 | 0.995 ± 0.043 | 0.00828 ± 0.0036 | 1.58 ± 0.21
HCI-025, days in culture: 172 | 3.28 | 1.84 | 2.93 | 0.781 | 0.555 | -0.249 | -0.109 | 2.63
HCI-025, days in culture: 209 | 1.95 | 2.53 | 2.24 | 1.27 | 1.81 | 0.666 | 0.00258 | 2.29
HCI-025, days in culture: 218 | 1.36 | 1.87 | 1.59 | 1.15 | 0.81 | 0.293 | 0.0152 | 1.91

Source: the supplement of paper PMC8882468
